What was measured:
[1] = test system: Mycobacterium tuberculli induced inflammatory arthritis in rats (injected paw); experiment: Adjuvant-induced developing inflammatory arthritis (prophylactic), injected paw oedema; type: in vivo, Wistar rats; conditions: 100 mg/kg oral once daily, day 14, injected paw
Experimental: Wistar rats, 12-14 weeks old, 140-160 g body weight in groups of 6 were employed in the study. All the animals were maintained in plastic cages at 22±2° C. with 12 h light/dark cycle and free access to pellet food and water. Test materials were administered orally once a day for the duration of the experiment. In all the experiments, a control group was maintained (vehicle administered) whilst the other group received a standard drug acetylsalicylic acid (ASA) administered once daily for comparison and authenticity/credibility of the test. The entire study was carried out after approval from Institutional Animal Ethics Committee and all the animals used in experimental work received humane care. The mean and standard error (S.E.) of the mean for each group was calculated and the results were expressed as percent inhibition compared to control group. The significance was determined statistically by applying Student's t-test.
Adjuvant arthritis was induced by the sub-plantar injection of 0.05 ml freshly prepared suspension (5.0 mg/ml) of steam killed Mycobacterium tuberculosis in liquid paraffin [Newbould BB. Chemotherapy of arthritis induced in rats by mycobacterial adjuvant. Br J Pharmacol 1963; 21:127-36]. The volume of the injected paws was quantitated before and on day 14th after the adjuvant injection and was measured by a volume differential meter model LE 7500N, Panlab, Spain.

[2] = test system: intracellular TNF-α in murine neutrophils; experiment: Intracellular in vitro TNF-α estimation in LPS-stimulated murine neutrophils (flow cytometry); type: cell-based; conditions: 100 μg/ml, 3 h
Experimental: Cells were stimulated with LPS and incubated with test materials at graded concentrations (μg/ml) for 3 hours, in a CO2 incubator. The permeabilising solution was added to the cells and then these were incubated for 10 min. The cells were then labeled with conjugated anti-mouse TNF-α monoclonal antibody and further incubation of 30 min. duration was carried out in dark. After washing with Phosphate buffered saline, the samples were acquired directly on BD-Cantoll Flowcytometer (Beckton-Dickinson Biosciences, CA, USA). A fluorescence trigger was set on the FL1 parameter of the gated neutrophils populations (10,000 events) and fluorescence compensation, data analysis and data presentation was performed using Cell Quest Pro software. [Clara, B., R. C. Arancha, G. M. Andre's, P. Atanasio, A. Julia, and O. Alberto. 2003. A new method for detecting TNF-α-secreting cells using direct immunofluorescence surface membrane stainings. J. Immuno. Methods 264:77-87.][Khurshid A. Bhat, Bhahwal A. Shah, Kuldeep K. Gupta, Anjali Pandey, Sarang Bani, Subhash C. Taneja. Semi-synthetic analogs of pinitol as potential inhibitors of TNF-a cytokine expression in human neutrophils. Bioorganic & Medicinal Chemistry Letters 19 2009, 1939-1943].

Row | Structure (SMILES) | Oedema Mean ± S.E. [1] | inhibition at 100 mg/kg ([1]; Mycobacterium, 336 h, read-out: Percentage Activity Against Arthritic Control (↓ percent inhibition)) | % TNF-alpha expression against LPS control (↓ decrease) [2] | intracellular TNF-α expression Mean ± S.E ([2]; n=3)
1 | CC(=O)Oc1ccccc1C(=O)O [ASA, Acetylsalicylic acid] | 1.82 ± 0.17 mm | 37% | – | –
2 | COc1ccc(C2CNC(=O)C2)cc1OC1CCCC1 (stereo not shown) [Rolipram] | – | – | 71.48↓ % | 0.71 ± 0.04

Reference: patent publication US20110218172A1, “COMPOSITION FOR DOWN-REGULATING PRO-INFLAMMATORY MARKERS” (priority 2010, published 2011)
